Where a name gives a salt, the structure may show the parent alone.
Experiments:
[1] = system: human circulating polymorphonucleates (PMNs), C5a induced chemotaxis; test: C5a-induced chemotaxis of human PMNs (microchamber assay); type: cell-based; details: compound 10^-5 M (so in the source), C5a 1 ng/mL
Method: (§1) The compounds of the invention of formula (I) were evaluated “in vitro” for their ability to inhibit chemotaxis of polymorphonucleate leukocytes (hereinafter referred to as PMNs) and monocytes, induced by the fractions of the complement C5a and C5a-desArg. For this purpose, to isolate the PMNs from heparinized human blood, taken from healthy adult volunteers, mononucleates were removed by means of sedimentation on dextrane (according to the procedure disclosed by W. J. Ming et al., J. Immunol., 138, 1469, 1987) and red blood cells by a hypotonic solution. The cell vitality was calculated by exclusion with Trypan blue, whilst the ratio of PMNs was estimated on the cytocentrifugate after staining with Diff Quick.
The fractions hr-C5a and hrC5a-desArg (Sigma) were used as stimulating agents in chemotaxis experiments, obtaining practically identical results.
Lyophilized C5a was dissolved in a volume of HBSS containing 0.2% BSA so as to obtain a stock solution having a concentration of 10^−5 M, to be diluted in HBSS to a concentration of 10^−9 M, for the chemotaxis assays.
(§2) In the chemotaxis experiments, the PMNs were incubated with the compounds of the invention of formula (I) for 15′ at 37° C. in an atmosphere containing 5% CO2.
(§3) The chemotactic activity of the C5a was evaluated on human circulating polymorphonucleates (PMNs) resuspended in HBSS at a concentration of 1.5×10^6 PMNs per ml.
(§4) During the chemotaxis assay (according to W. Falket et al., J. Immunol. Methods, 33, 239, 1980) PVP-free filters with a porosity of 5 mcm and microchambers suitable for carrying out the test were used.
[…] The wells in the lower part contain the solution of C5a or the simple carrier, those in the upper part contain the suspension in PMNs.
Inhibition of C5a-induced chemotactic activity by the individual compounds of the invention of formula (I) was evaluated by incubating the microchamber for the chemotaxis for 60 min at 37° C. in an atmosphere containing 5% CO2.

[2] = system: human PMNs (rhIL-8 induced chemotaxis); test: IL-8-induced chemotaxis of human PMNs (microchamber assay); type: cell-based; details: IL-8 10 ng/mL; for inhibition at 0.01 µM: compound 10^-8 M; for inhibition at 1 µM: compound c = 10^-6 M
Method: as §1, §2, §3, §4
The compounds of the invention in formula (I) were evaluated at a concentration ranging between 10^−6 and 10^−10 M; for this purpose they were added, at the same concentration, both to the lower pores and the upper pores of the microchamber. The wells in the lower part contain the solution of C5a or the simple carrier, those in the upper part contain the suspension in PMNs.
The compounds of the invention were also evaluated in their ability to inhibit IL-8-induced chemotaxis of human PMNs. For this purpose, recombinant human interleukin-8 (rhIL-8, Pepro Tech) was used: the lyophilized protein was dissolved in HBSS (Hank's balanced salts solution) at the concentration of 100 mcg/mL and then diluted down to a concentration of 10 ng/mL in the chemotaxis experiments. R(−)-2-[(4′-isobutyl)phenyl]-propionyl methansulfonamide (ED50=10^−9 M) described in WO 00/24710, was used as reference standard.

[3] = system: human PMNs (rhIL-8 induced chemotaxis); details: reference standard; rhIL-8 10 ng/mL; read-out: ED50 (inhibition of IL-8-induced chemotaxis of human PMNs); cited from earlier work

Compound	inhibition at 10 µM ([1]; 1 h)	inhibition at 0.01 µM [2]	melting point	EC50 [3]	inhibition at 10 µM [1]	inhibition at 1 µM [2]
CC(C)Cc1ccc([C@@H](C)C(=O)NCC(=O)NCCN(C)C)cc1 [R-2-[(4′-isobutylphenyl]-N-[2-(dimethylaminoethyl)aminocarbonylmethyl]-propionamide hydrochloride]	68 ± 4%	31 ± 6%	–	–	–	–
CC(C)Cc1ccc([C@@H](C)C(=O)NCCCN2CCOCC2)cc1.Cl [(R) 2-(4-isobutylphenyl)-N-3-(N-morpholinylpropyl)propionamide.HCl]	24 ± 11%	55 ± 12%	90 to 93 °C	–	–	–
CC(C)Cc1ccc([C@@H](C)C(=O)NC2CCN(C)CC2)cc1 [(R) 2-(4-isobutylphenyl)-N-(1-methyl-piperidin-4-yl)propionamide hydrochloride]	48 ± 8%	4 ± 9%	–	–	–	–
CC(C)Cc1ccc([C@@H](C)C(=O)NS(C)(=O)=O)cc1 [R(−)-2-[(4′-isobutyl)phenyl]-propionyl methansulfonamide]	–	–	–	1 nM	–	–
CC(C)Cc1ccc([C@@H](C)C(=O)NCCCN)cc1 [(R) 2-(4-isobutylphenyl)-N-(3-aminopropyl)propionamide hydrochloride]	84 ± 8%	2 ± 7%	–	–	–	–
C[C@@H](C(=O)NCCCN(C)C)c1ccccc1Nc1c(Cl)cccc1Cl [(R)-2-[2-(2,6-dichlorophenylamino)-phenyl]-N-3-(dimethylaminopropyl) propionamide]	41 ± 2%	1 ± 13%	–	–	41 ± 2%	58 ± 6%
CC(C)Cc1ccc([C@@H](C)C(=O)NCCCN2CCN(C)CC2)cc1.Cl.Cl	–	–	216 to 220 °C	–	–	–
CC(C)Cc1ccc([C@@H](C)C(=O)NCCCCN(C)C)cc1.Cl [(R) 2-(4-isobutylphenyl)-N-(4-dimethylaminobutyl)propionamide. HCl]	55 ± 8%	34 ± 6%	95 to 97 °C	–	–	–
CC(C)Cc1ccc([C@@H](C)C(=O)N[C@@H](CCCN2CCCCC2)C(=O)O)cc1 [sodium salt]	33 ± 15%	56 ± 9%	–	–	–	–
CC(C)Cc1ccc([C@@H](C)C(=O)NCCCN(C)C)cc1.Cl [(R) 2-(4-isobutylphenyl)-N-(3-dimethylaminopropyl)propionamide hydrochloride]	65 ± 14%	51 ± 15%	95 to 98 °C	–	–	–
C[C@@H](C(=O)NCCCN(C)C)c1cccc(C(=O)c2ccccc2)c1 [(R)-2-[(3-benzoyl)phenyl]-N-(3-dimethylaminopropyl)propionamide]	56 ± 2%	53 ± 8%	–	–	–	–
CC(C)c1cccc([C@@H](C)C(=O)NCCCN(C)C)c1 [(R) 2-(3-isopropylphenyl)-N-3-(dimethylaminopropyl)propionamide]	42 ± 18%	5 ± 6%	–	–	42 ± 18%	48 ± 2%
CC(C)Cc1ccc([C@@H](C)C(=O)NC(CCCCN)C(=O)O)cc1 (stereo partly drawn) [(R),(S′) 2-(4′-isobutylphenyl)-N-(1-carboxy-5-aminopentyl)propionamide hydro-chloride]	49%	5%	–	–	–	–
CC(C)Cc1ccc([C@@H](C)C(=O)NCCN(C)C)cc1.Cl [(R)-2-(4-isobutylphenyl)-N-(2-dimethylaminoethyl)propionamide.HCl]	62 ± 12%	56 ± 13%	90 to 93 °C	–	–	–
CC(C)Cc1ccc([C@@H](C)C(=O)NCCCN2CCCCC2)cc1.Cl [(R) 2-(4-isobutylphenyl)-N-[3-(1-piperidinyl)propyl]propionamide hydrochloride]	76 ± 6%	46 ± 8%	76 to 80 °C	–	–	–
CC(C)Cc1ccc([C@@H](C)C(=O)N[C@@H]2C[C@H]3CC[C@@H](C2)N3C)cc1 [(R) 2-(4-isobutylphenyl)-N-(exo-8-methyl-8-aza-bicyclo[3.2.1]oct-3-yl)propionamide hydrochloride]	57 ± 6%	3 ± 8%	–	–	–	–
